Experimental data from ChEMBL document CHEMBL4177666, “Compound design guidelines for evading the efflux and permeation barriers of Escherichia coli with the oxazolidinone class of antibacterials: Test case for a general approach to improving whole cell Gram-negative activity” (Bioorg Med Chem Lett, 2017).
≈ marks a conversion by molar mass, not a printed value.

Key:
Type in all cases: functional
Escherichia coli [1] = experiment: Permeability index, ratio of MIC for wild type Escherichia coli MG1655 to MIC for Escherichia coli MG1655 membrane permeabilized mutant in presence of polymyxinnonapeptide
Escherichia coli [2] = experiment: Antibacterial activity against gram-negative Escherichia coli MG1655 membrane permeabilized mutant in presence of polymyxinnonapeptide by CLSI broth microdilution method
Escherichia coli [3] = experiment: Antibacterial activity against gram-negative Escherichia coli MG1655 expressing AcrAB-TolC efflux pump deletion mutant by CLSI broth microdilution method
Escherichia coli [4] = experiment: Efflux index, ratio of MIC for wild type Escherichia coli MG1655 to MIC for Escherichia coli MG1655 expressing AcrAB-TolC efflux pump deletion mutant
Staphylococcus aureus = experiment: Antibacterial activity against methicillin-susceptible Staphylococcus aureus ATCC 29213 by CLSI broth microdilution method
Escherichia coli [5] = experiment: Antibacterial activity against gram-negative wild type Escherichia coli MG1655 by CLSI broth microdilution method
Bacterial 70S ribosome = experiment: Inhibition of protein synthesis in Escherichia coli ribosomes incubated for 1 hr at 37 degC by SDS-PAGE and Gaussia luciferase reporter gene assay

| SMILES | Ratio (Escherichia coli [1]) | MIC (Escherichia coli [2]) [µg/mL] | MIC (Escherichia coli [3]) [µg/mL] | Ratio (Escherichia coli [4]) | MIC (Staphylococcus aureus) [µg/mL] | MIC (Escherichia coli [5]) [µg/mL] | IC50 (Bacterial 70S ribosome) [µM] |
| --- | --- | --- | --- | --- | --- | --- | --- |
| CC(=O)NC[C@H]1CN(c2ccc(-c3ccc(CN)cc3)c(F)c2)C(=O)O1 | 2 | 32 | 8 (≈ 22.4 µM) | 8 | 2 (≈ 5.6 µM) | 64 (≈ 179 µM) | – |
| O=C(NC[C@H]1CN(c2ccc(-c3ccc(F)c(O)c3)c(F)c2)C(=O)O1)C(F)F | >4 | 8 | 4 (≈ 10 µM) | >8 | 1 (≈ 2.51 µM) | > 32 | – |
| NC[C@H]1CN(c2ccc(N3CCOCC3)c(F)c2)C(=O)O1 | – | – | – | – | > 64 | > 256 | – |
| NCc1ccc(-c2ccc(N3C[C@H](Cn4cc(O)nn4)OC3=O)cc2F)cc1 | – | – | 32 (≈ 83.5 µM) | >2 | 8 (≈ 20.9 µM) | > 64 | – |
| NCc1ccc(-c2ccc(N3C[C@H](CN4C(=O)CNC4=O)OC3=O)cc2F)cc1 | – | – | – | – | > 64 | > 256 | – |
| N/C(=N\O)c1ccc(-c2ccc(N3C[C@H](CO)OC3=O)cc2F)cn1 | >16 | 16 | 16 (≈ 46.2 µM) | >16 | 1 (≈ 2.89 µM) | > 256 | – |
| NCc1ccc(-c2ccc(N3C[C@H](CNC(=O)C(F)(F)F)OC3=O)cc2F)cc1 | 6 | 11 | 2 (≈ 4.86 µM) | 32 | 2 (≈ 4.86 µM) | 64 (≈ 156 µM) | – |
| O=C1CCc2cc(-c3ccc(N4C[C@H](CO)OC4=O)cc3F)cc(O)c21 | >32 | 64 | 8 (≈ 22.4 µM) | 8 | 1 (≈ 2.8 µM) | > 256 | – |
| N/C(=N\O)c1ccc(-c2ccc(N3C[C@H](CNC(=O)C(F)(F)F)OC3=O)cc2F)cc1 | >16 | 16 | < 2 | >256 | < 0.5 | > 256 | – |
| CCOc1cnnn1C[C@H]1CN(c2ccc(-c3ccc(CN)cc3)c(F)c2)C(=O)O1 | >1 | 256 | 128 (≈ 311 µM) | >2 | 32 (≈ 77.8 µM) | > 256 | – |
| CC(=O)NC[C@H]1CN(c2ccc(-c3ccc(F)c(O)c3)c(F)c2)C(=O)O1 | >16 | 16 | 8 (≈ 22.1 µM) | >32 | 2 (≈ 5.52 µM) | > 256 | – |
| O=C1O[C@@H](CO)CN1c1ccc(O)cc1F | – | – | – | – | > 64 | > 256 | – |
| CC(=O)NC[C@H]1CN(c2ccc(-c3ccc(C#N)c(O)c3)c(F)c2)C(=O)O1 | >8 | 32 | 32 (≈ 86.6 µM) | >8 | 2 (≈ 5.41 µM) | > 256 | – |
| NCc1ncc(-c2ccc(N3C[C@H](CO)OC3=O)cc2F)cc1O | 1.6 | – | – | 1.6 | 20 (≈ 60 µM) | 51 (≈ 153 µM) | 192 |
| NCc1ccc(-c2ccc(N3C[C@H](Cn4nc[nH]c4=O)OC3=O)cc2F)cc1 | – | – | – | – | 32 (≈ 83.5 µM) | > 64 | – |
| COc1cc(N2C[C@H](CO)OC2=O)ccc1-c1ccc(CN)cc1 | – | – | – | – | > 64 | > 256 | – |
| NCc1ccc(-c2ccc(N3C[C@H](CN4CCOC4=O)OC3=O)cc2F)cc1 | – | – | 256 (≈ 664 µM) | >=2 | 16 (≈ 41.5 µM) | > 256 | – |
| NCc1cc(F)c(-c2ccc(N3C[C@H](CO)OC3=O)cc2F)cc1O | 2 | – | – | 1 | – | – | – |
| N#Cc1ccc(-c2ccc(N3C[C@H](CN)OC3=O)cc2F)cc1O | – | – | – | – | 64 (≈ 196 µM) | > 256 | – |

| SMILES | Ratio (Escherichia coli [1]) | MIC (Escherichia coli [2]) [µg/mL] | MIC (Escherichia coli [3]) [µg/mL] | Ratio (Escherichia coli [4]) | MIC (Staphylococcus aureus) [µg/mL] | MIC (Escherichia coli [5]) [µg/mL] | IC50 (Bacterial 70S ribosome) [µM] |
| --- | --- | --- | --- | --- | --- | --- | --- |
| NCc1ccc(-c2ccc(N3C[C@H](Cn4nncc4C(=O)O)OC3=O)cc2F)cc1 | – | – | – | – | 16 (≈ 38.9 µM) | > 128 | – |
| CC(=O)NC[C@H]1CN(c2ccc(-c3cnc(C#N)c(O)c3)c(F)c2)C(=O)O1 | – | – | 128 (≈ 346 µM) | >2 | 32 (≈ 86.4 µM) | > 256 | – |
| N#Cc1ccc(-c2ccc(N3C[C@H](CO)OC3=O)nc2)cc1O | – | – | – | – | > 64 | > 256 | – |
| NCc1ccc(-c2ccc(N3C[C@H](C(N)=O)OC3=O)cc2F)cc1 | – | – | – | – | > 64 | > 256 | – |
| O=C1O[C@@H](CO)CN1c1ccc(-c2ccccc2F)cc1 | – | – | 8 (≈ 27.8 µM) | >8 | 4 (≈ 13.9 µM) | > 64 | – |
| NCc1ccc(-c2ccc(N3C[C@H](Cn4cc(C(=O)O)nn4)OC3=O)cc2F)cc1 | – | – | – | – | > 64 | > 256 | – |
| NCc1ccc(-c2ccc(N3C[C@H](CO)OC3=O)cc2F)cc1O | 2.6 | – | – | 10.2 | – | – | – |
| CC(=O)NC[C@H]1CN(c2ccc(-c3ccc(CN)c(O)c3)c(F)c2)C(=O)O1 | 2 | 64 | 8 (≈ 21.4 µM) | 16 | 4 (≈ 10.7 µM) | 128 (≈ 343 µM) | – |
| COc1ccc(N2C[C@H](CO)OC2=O)cc1O | – | – | – | – | > 64 | > 256 | – |
| NCc1ccc(-c2ccc(N3C[C@H](CNC(=O)C(F)F)OC3=O)cc2F)cc1 | 4 | 32 | 4 (≈ 10.2 µM) | 32 | 2 (≈ 5.08 µM) | 128 (≈ 325 µM) | – |
| NCc1ccc(-c2ccc(N3C[C@H](Cn4nncc4CO)OC3=O)cc2F)cc1 | – | – | – | – | > 64 | > 256 | – |
| NC[C@H]1CN(c2ccc(-c3ccc(F)c(O)c3)c(F)c2)C(=O)O1 | 1 | 256 | 256 (≈ 799 µM) | 1 | 64 (≈ 200 µM) | 256 (≈ 799 µM) | – |
| O=C(O)c1ccc(N2C[C@H](CO)OC2=O)cc1F | – | – | – | – | > 64 | > 256 | – |
| NCc1ccc(-c2ccc(N3C[C@H](CO)OC3=O)cc2O)cc1 | – | – | – | – | > 64 | > 256 | – |
| Nc1cc(-c2ccc(N3C[C@H](CNC(=O)C(F)(F)F)OC3=O)cc2F)ccn1 | >=4 | 16 | 8 (≈ 20.1 µM) | >=8 | 4 (≈ 10 µM) | > 32 | – |
| O=C1O[C@@H](CO)CN1c1ccc(-c2cc(O)c(F)cc2F)cc1 | >4 | 64 | 32 (≈ 99.6 µM) | >8 | 4 (≈ 12.5 µM) | > 256 | – |
| COc1ccccc1-c1ccc(N2C[C@H](CO)OC2=O)cc1 | – | – | – | – | 64 (≈ 214 µM) | > 64 | – |
| NCCC#Cc1ccc(N2C[C@H](CO)OC2=O)cc1F | – | – | – | – | > 64 | > 256 | – |
| N/C(=N\O)c1ccc(-c2ccc(N3C[C@H](CO)OC3=O)cc2F)cc1O | 2 | – | – | 1 | – | – | – |

| SMILES | Ratio (Escherichia coli [1]) | MIC (Escherichia coli [2]) [µg/mL] | MIC (Escherichia coli [3]) [µg/mL] | Ratio (Escherichia coli [4]) | MIC (Staphylococcus aureus) [µg/mL] | MIC (Escherichia coli [5]) [µg/mL] | IC50 (Bacterial 70S ribosome) [µM] |
| --- | --- | --- | --- | --- | --- | --- | --- |
| NC(/C=C/c1ccc(N2C[C@H](CO)OC2=O)cc1F)=N\O | – | – | – | – | > 64 | > 128 | – |
| NCc1ccc(-c2ccc(N3C[C@H](C(=O)O)OC3=O)cc2F)cc1 | – | – | – | – | > 64 | > 256 | – |
| NCc1ccc(-c2ccc(N3C[C@H](Cn4cc(CO)nn4)OC3=O)cc2F)cc1 | 2 | 128 | 64 (≈ 161 µM) | – | 16 (≈ 40.3 µM) | 256 (≈ 644 µM) | – |
| O=C1O[C@@H](CO)CN1c1ccc(-c2cc(O)ccc2F)cc1 | >8 | 32 | 16 (≈ 52.8 µM) | >16 | 1 (≈ 3.3 µM) | > 256 | – |
| O=C1O[C@@H](CNC(=O)C(F)(F)F)CN1c1ccc(-c2ccc(F)c(O)c2)c(F)c1 | >2 | 256 | 256 (≈ 615 µM) | >2 | 32 (≈ 76.9 µM) | > 256 | – |
| O=C1O[C@@H](CO)CN1c1ccc(-c2ccc(N3C[C@@H](CO)OC3=O)nc2)c(F)c1 | – | – | – | – | 32 (≈ 79.3 µM) | > 128 | – |
| CCOc1cn(C[C@H]2CN(c3ccc(-c4ccc(CN)cc4)c(F)c3)C(=O)O2)nn1 | – | – | 32 (≈ 77.8 µM) | >4 | 16 (≈ 38.9 µM) | > 64 | – |
| N/C(=N\O)c1ccc(-c2ccc(N3C[C@H](CO)OC3=O)cc2)cc1 | >8 | 32 | 8 (≈ 24.4 µM) | >32 | 2 (≈ 6.11 µM) | > 256 | – |
| O=C1O[C@@H](CO)CN1c1ccc(-c2ccc(F)c(O)c2)[n+]([O-])c1 | – | – | – | – | 64 (≈ 200 µM) | > 256 | – |
| O=C1O[C@@H](CO)CN1c1ccc(-c2ccc([N+](=O)[O-])c(O)c2)c(F)c1 | 1 | – | – | 1 | – | – | – |
| NCc1ccc(-c2ccc(N3C[C@H](Cn4nncc4O)OC3=O)cc2F)cc1 | – | – | – | – | > 64 | > 64 | – |
| N#Cc1cc(O)cc(-c2ccc(N3C[C@H](Cn4ccnn4)OC3=O)cc2F)c1 | >2 | 128 | 64 (≈ 169 µM) | >4 | 8 (≈ 21.1 µM) | > 256 | – |
| N#Cc1cc(O)cc(-c2ccc(N3C[C@H](Cn4nccn4)OC3=O)cc2F)c1 | >4 | 64 | 64 (≈ 169 µM) | >4 | 32 (≈ 84.4 µM) | > 256 | – |
| NCc1ccc(-c2ccc(N3C[C@H](Cn4cc(CN)nn4)OC3=O)cc2F)cc1 | >2 | 128 | 128 (≈ 323 µM) | >2 | 8 (≈ 20.2 µM) | > 256 | – |
| CC(=O)NC[C@H]1CN(c2ccc(-c3ccnc(N)c3)c(F)c2)C(=O)O1 | 4 | 32 | 8 (≈ 23.2 µM) | 16 | 2 (≈ 5.81 µM) | 128 (≈ 372 µM) | – |
| O=C1O[C@@H](CO)CN1c1ccc(O)c(F)c1 | – | – | – | – | > 64 | > 256 | – |
| N/C(=N\O)c1ccc(-c2ccc(N3C[C@H](CNC(=O)C(F)(F)F)OC3=O)cc2F)cc1O | – | – | – | – | > 64 | > 256 | – |
| CC(=O)NC[C@H]1CN(c2ccc(N3CCOCC3)c(F)c2)C(=O)O1 [LINEZOLID] | 3.6 | 36 | 11 (≈ 32.6 µM) | 12 | 3.1 (≈ 9.19 µM) | 130 (≈ 385 µM) | 23.7 |
